From patent US8629100B2, “Method of inhibiting clostridium difficile by administration of oritavancin” (The Medicines Company, priority 2007, dated 2014)

Legend:
[1] = tested on: C. difficile spores (PCR ribotypes 001, 106 and 027); assay: Viability (recovery) of spores after antibiotic exposure, cellulose acetate filtration (Examples 3A, 3B); assay type: cell-based
Procedure: The experiments were in general performed by mixing C. difficile spores with an antibiotic, filtering the solution through cellulose acetate filters to collect the spores, applying the spore-containing filters to nutrient agar, and determining the number of spores remaining on the filters after a selected period of time.
Therefore, the initial experiment included dilution of antimicrobial-containing spore suspensions prior to filtration and washing. Reaction volumes were 1 mL for all antimicrobial/control solutions.
1 mL of control (de-ionised water+/−Tween-80) and test (antimicrobial containing) solutions were inoculated with 10 μL C. difficile spores (3 strains; PCR ribotypes 001, 106 and 027). Spore suspensions (time=1 min or 30 min) were transferred to filtration cupules and the appropriate volume of diluent (sterile de-ionised water+/−Tween-80) was added to achieve the dilution factors noted above. Samples were filtered onto cellulose acetate filters and washed with a further 50 mL of the appropriate diluent. Filters were transferred aseptically to Braziers CCEY agar containing 5 mg/L lysozyme and 2% lysed horse blood. This procedure was completed in duplicate. The culture media were incubated in an anaerobic atmosphere at 37° C. for 48 h and the numbers of C. difficile colonies were recorded.
Diluent was first added to filtration cupules. 1 mL reactions were then added to the appropriate diluent (1 min and 30 min after reaction formation) and filtered onto cellulose acetate filters. The filters were washed with 50 mL of the appropriate diluent. The filters were then transferred aseptically to Braziers CCEY agar containing 5 mg/L lysozyme and 2% lysed horse blood. This procedure was completed in duplicate. Culture media were incubated in an anaerobic atmosphere at 37° C. for 48 h and the numbers of C. difficile colonies recorded

[2] = tested on: indigenous gut microflora; assay: In vitro human gut model: indigenous gut microflora counts; assay type: cell-based; details: for Decline in Bacteroides populations / Decline in enterococcal populations: following instillation, period E, vessel 3
Description: The gut model was designed to allow the study of the intestinal microflora in the low pH, carbohydrate-excess conditions of the proximal colon and the carbohydrate-depleted, non-acidic conditions of the distal colon (Macfarlane et al., Microb Ecol 1998; 35: 180-7). Microbiological and physicochemical measurements within the gut model vessels were validated against the intestinal contents of sudden death victims (Macfarlane et al., Microb Ecol 1998; 35: 180-7). Each gut model consists of three fermentation vessels connected in a weir cascade system top-fed with growth medium at a controlled rate (D=0.015 h^−1). Vessels were sparged with oxygen-free nitrogen to ensure anaerobiosis, heated via a water-jacketed system (37° C.) and maintained at specific pH using fermenter controller units (Biosolo 3, Brighton Systems, UK) delivering 0.5 M HCl/NaOH. Vessel 1 (280 mL) was operated at pH 5.5 and high substrate availability, thus reflecting the conditions within the proximal colon, while vessels 2 and 3 (300 mL) were operated at pH 6.2 and 6.8, respectively, with low substrate availability, thus reflecting the conditions within the distal colon. The gut model was primed with faecal slurry ˜10% (w/v) and allowed to equilibrate with respect to bacterial populations for 14 days.
Faecal samples were collected from five healthy elderly (>65 years) volunteers and immediately transported to the laboratory under anaerobic conditions (GasPak, Oxoid, Basingstoke, UK). […] C. difficile-negative faeces were pooled and a coarse-filtered slurry (˜10% w/v) in sterile pre-reduced phosphate-buffered saline was prepared. Vessels of the gut models were filled to approximately two-thirds volume, and the growth medium pumps were started.
Major culturable components of the indigenous gut microflora and C. difficile were enumerated by viable counting (log10 cfu/mL) on selective and non-selective agars as reported previously (Freeman et al., J Antimicrob Chemother 2005; 56: 717-25). Bacterial groups enumerated were: total facultative anaerobes, facultatively anaerobic lactose fermenters, total anaerobes, bifidobacteria, Bacteroides fragilis group, total clostridia, lactobacilli, enterococci, total C. difficile and C. difficile spores. C. difficile cytotoxin production was quantified using a Vero cell cytotoxicity assay as described previously (Freeman et al., J Antimicrob Chemother 2003; 52: 96-102). Cytotoxin titres were expressed in log10 relative units (RU). Only C. difficile total bacterial counts, spore counts and cytotoxin titres were enumerated in vessel 1 of the gut model.
The use of the gut model to evaluate therapeutic interventions for CDI has been described previously (Freeman et al., J Antimicrob Chemother 2007; 60: 83-91; Freeman et al., J Antimicrob Chemother 2005; 56: 717-25). Briefly, following inoculation of each gut model with the faecal slurry, no further interventions were made for 13 days (period A). During period A, bacterial populations were enumerated every 2 days. Next (day 14), vessel 1 of each gut model was inoculated with a single inoculum of ˜10^7 cfu C. difficile PCR ribotype 027 spores (Freeman et al., J Antimicrob Chemother 2003; 52: 96-102), with no further interventions for 7 days (period B). From this point onwards, bacterial populations were enumerated daily.

[3] = tested on: C. difficile (CD) ATCC 43255; assay: Hamster model of CDI, oral administration; assay type: in vivo, Syrian golden hamsters; details: for Survival prolonged more than untreated animals: formulated in HPCD, gavage; for Mean survival time: ORI 100 mg/kg (HPCD), VA 50 mg/kg/day, oral, 5 days
Procedure: C. difficile (CD) ATCC 43255 was used in all experiments. CD spores were prepared for the infection by incubating CD cells on blood agar plate at 37° C. anaerobically for 7 days, to promote spore formation. The CD colonies were resuspended in phosphate buffered saline (PBS) and mixed with an equal volume of 100% ethanol for one hour. The spores were centrifuged, resuspended in PBS, aliquoted, and frozen at −20° C. Spores were diluted in PBS for oral inoculation into hamsters.
All studies were performed in accordance with protocols that were approved by the Institutional Animal Care and Use Committee. […] One day later (Day 0), animals were infected orally with […] CD spores.
1) Starting on Day 1 post-infection (PI), a single dose of either vehicle, vancomycin (VA) (50 mg/kg/day), or oritavancin (ORI) formulated in 10% hydroxypropyl β-cyclodextrin (HPCD) (10, 50 or 100 mg/kg/day) was administered to the hamsters (n=10/group) by gavage for 5 days.
Detection of CD cells and toxins were detected in the caecal contents of animals at both the experimental and clinical endpoints. Presence of CD toxins (toxin A and B) were detected by using the CD TOX A/B IITM kit (Techlab) as described by the manufacturer. Limit of detection was ≧0.8 ng/mL for Toxin A and ≧2.5 ng/mL of Toxin B. Total viable cells (TC) (both vegetative and spore forms) were enumerated by serially diluting the caecal content by 10 fold in PBS containing 2% oxyrase (Oxyrase Inc). The caecal content dilutions were plated on Brazier's CCEY lysozyme agar (Lab160) without egg yolk. CD spores were counted by treating caecum samples with an equal volume of pure ethanol. The limit of detection (LOD) was 1.47 and 1.77 Log 10 CFU/g caecal content for TC and spores, respectively.
Data were analyzed by Kaplan-Meier and Log rank Wilcoxon tests survival analysis by using GraphPad Prism (version 5.00). A p-value lower than 0.05 (p<0.05) was considered to indicate statistical significance.

[4] = Example 3A: diluent added after reaction solutions, 1 min and 30 min exposure
[5] = Example 3B: diluent added to cupules before reaction solutions, 1 min and 30 min

SMILES: CN[C@H](CC(C)C)C(=O)N[C@H]1C(=O)N[C@@H](CC(N)=O)C(=O)N[C@H]2C(=O)N[C@H]3C(=O)N[C@H](C(=O)N[C@H](C(=O)O)c4cc(O)cc(O)c4-c4cc3ccc4O)[C@H](O[C@H]3C[C@](C)(N)[C@@H](O)[C@H](C)O3)c3ccc(c(Cl)c3)Oc3cc2cc(c3O[C@@H]2O[C@H](CO)[C@@H](O)[C@H](O)[C@H]2O[C@H]2C[C@](C)(NCc3ccc(-c4ccc(Cl)cc4)cc3)[C@@H](O)[C@H](C)O2)Oc2ccc(cc2Cl)[C@H]1O [oritavancin, N-(4-(4-chlorophenyl)benzyl)A82846B]
- Recovery of C. difficile spores [1, 4]: 0 % of controls
- Recovery of C. difficile spores [1, 5]: 0 % of controls
- Decline in Bacteroides populations [2]: ~1 log10 cfu/mL
- Decline in enterococcal populations [2]: ~2 log10 cfu/mL
- Bifidobacteria after cessation of instillation ([2]; period F): remained below the limits of detection
- Survival prolonged more than untreated animals ([3]; 10 mg/kg once daily for 5 days): 9 days
- Survival prolonged more than untreated animals ([3]; 50 mg/kg once daily for 5 days): 13 days
- Survival prolonged more than untreated animals ([3]; 100 mg/kg once daily for 5 days): > 17 days
- Efficacy compared to VA on Day 12 PI ([3]; 100 mg/kg, HPCD): superior efficacy
- Mean survival time [3]: 17 days

SMILES: CN[C@H](CC(C)C)C(=O)N[C@H]1C(=O)N[C@@H](CC(N)=O)C(=O)N[C@H]2C(=O)N[C@H]3C(=O)N[C@H](C(=O)N[C@H](C(=O)O)c4cc(O)cc(O)c4-c4cc3ccc4O)[C@H](O)c3ccc(c(Cl)c3)Oc3cc2cc(c3O[C@@H]2O[C@H](CO)[C@@H](O)[C@H](O)[C@H]2O[C@H]2C[C@](C)(N)[C@H](O)[C@H](C)O2)Oc2ccc(cc2Cl)[C@H]1O [vancomycin]
- Recovery of C. difficile spores [1, 4]: 25-60 % of controls
- Recovery of C. difficile spores [1, 5]: 70-80 % of controls
- Decline in Bacteroides populations [2]: ~6 log10 cfu/mL
- Decline in enterococcal populations [2]: ~1 log10 cfu/mL
- Bifidobacteria lower than steady-state (period A) after cessation of instillation ([2]; period F): ~2 log10 cfu/mL
- Mean survival time [3]: 12 days
